13 molecules from US20200115357A1, “LIVER X RECEPTORS (LXR) MODULATORS” (Phenex-FXR GmbH, priority 2017, published 2020) can be followed below.

Series [1] concerns the target T1, LXRα ligand-binding domain (LBD) (Homo sapiens, UniProt Q13133).
T1 construct: expressed in transfected cells; host or cells: HEK293
T1 sequence (Q13133 155-447): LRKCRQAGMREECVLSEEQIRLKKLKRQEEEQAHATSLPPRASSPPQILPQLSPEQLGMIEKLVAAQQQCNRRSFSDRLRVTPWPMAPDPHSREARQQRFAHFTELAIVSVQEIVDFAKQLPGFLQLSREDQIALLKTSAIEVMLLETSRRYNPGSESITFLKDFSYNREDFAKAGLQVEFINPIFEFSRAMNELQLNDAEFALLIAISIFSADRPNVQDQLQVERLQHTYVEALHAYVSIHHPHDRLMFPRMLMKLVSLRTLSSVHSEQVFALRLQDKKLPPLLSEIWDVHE
The series is described as follows: LXR Gal4 reporter transient transfection assay (M2H), Gal4α LBD. It counts as cell-based. The following applies: HEK293 cells; for EC50: read-out: M2H Gal4α LBD activity range (EC50). Here is the method: (§1) The tested compounds were usually dissolved, tested and stored as 20 mM stock solutions in DMSO. Since sulfonyl acetic acid derivatives tend to decarboxylate under these conditions, these stock solutions were prepared, tested and stored as 20 mM DMSO stock solutions containing 100 mM trifluoroacetic acid (5 equivalents). Sulfonyl acetic acid derivatives are shelf stable as solid at rt for long time as reported by Griesbrecht et al. (Synlett 2010:374) or Faucher et al. (J. Med. Chem. 2004; 47:18).
(§2) LXR Gal4 Reporter Transient Transfection Assays
(§3) LXRα and LXRβ activity status was determined via detection of interaction with coactivator and corepressor proteins in mammalian two-hybrid experiments (M2H). For this, via transient transfection the full length (FL) proteins of LXRα (amino acids 1-447; NP005684; SEQ ID NO:7) or LXRβ-(amino acids 1-461; NP009052; SEQ ID NO:8) or the ligand-binding domains (LBD) of LXRα (amino acids 155-447 SEQ ID NO:3) or LXRβ (amino acids 156-461; SEQ ID NO:4) were expressed from pCMV-AD (Stratagene) as fusions to the transcriptional activation domain of NFkB. As cofactors, domains of either the steroid receptor coactivator 1 (SRC1; amino acids 552-887; SEQ ID NO:5) or of the corepressor NCoR (amino acids 1903-2312 SEQ ID NO:6) were expressed as fusions to the DNA binding domain of the yeast transcription factor GAL4 (from pCMV-BD; Stratagene). Interaction was monitored via activation of a coexpressed Firefly Luciferase Reporter gene under control of a promoter containing repetitive GAL4 response elements (vector pFRLuc; Stratagene). Transfection efficiency was controlled via cotransfection of constitutively active pRL-CMV Renilla reniformis luciferase reporter (Promega). HEK293 cells were grown in minimum essential medium (MEM) with 2 mM L-glutamine and Earle's balanced salt solution supplemented with 8.3% fetal bovine serum, 0.1 mM non-essential amino acids, 1 mM sodium pyruvate, at 37° C. in 5% CO2. 3.5×10^4 cells/well were plated in 96-well cell culture plates in growth medium supplemented with 8.3% fetal bovine serum for 16-20 h to ˜90% confluency. For transfection, medium was taken off and LXR and cofactor expressing plasmids as well as the reporter plasmids are added in 30 μL OPTIMEM/well including polyethylene-imine (PEI) as vehicle. Typical amounts of plasmids transfected/well: pCMV-AD-LXR (5 ng), pCMV-BD-cofactor (5 ng), pFR-Luc (100 ng), pRL-CMV (0.5 ng). Compound stocks were prepared in DMSO, prediluted in MEM to a total volume of 120 μL, and added 4 h after addition of the transfection mixture (final vehicle concentration not exceeding 0.2%). Cells were incubated for additional 16 h, lysed for 10 min in 1× Passive Lysis Buffer (Promega) and Firefly and Renilla luciferase activities were measured sequentially in the same cell extract using buffers containing D-luciferine and coelenterazine, respectively. Measurements of luminescence were done in a BMG-Iuminometer.

Series [2] deals with T2, GST-LXRβ ligand-binding domain (Homo sapiens, UniProt P55055, DUP175-175).
T2 construct: amino acids 156-461; NP009052; made in house; host or cells: E. coli
T2 sequence (P55055 with tags, fused parts or gaps DUP175-175): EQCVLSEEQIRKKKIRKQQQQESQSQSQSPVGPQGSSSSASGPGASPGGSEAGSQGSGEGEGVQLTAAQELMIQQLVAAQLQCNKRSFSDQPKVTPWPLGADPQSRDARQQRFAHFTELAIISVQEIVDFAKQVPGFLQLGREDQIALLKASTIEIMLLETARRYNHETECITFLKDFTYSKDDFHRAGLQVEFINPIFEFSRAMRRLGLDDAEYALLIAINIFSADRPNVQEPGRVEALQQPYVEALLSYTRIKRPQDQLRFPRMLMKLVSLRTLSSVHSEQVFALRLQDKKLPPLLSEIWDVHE
Briefly: TR-FRETβ activity assay (LXRβ-LBD / NCoA3 coactivator peptide, prestimulated with 24(S)-25-epoxycholesterol). It counts as biochemical. Set-up: key to behavior in FRET assay: ag=agonist; ia=inverse agonist. The following applies: for EC50: 1 μM 24(S)-25-epoxycholesterol as prestimulating agonist, read-out: FRETβ activity range (EC50); for behavior in FRET assay: agonist or inverse agonist. In outline:
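E. coli-expressed GST-LXRβ LBD (aa 156-461) at 76 nM with biotinylated NCoA3 coactivator peptide (400 nM), in 240 mM KCl, BSA and Triton-X-100. Anti-GST-Tb cryptate/streptavidin-XL665 TR-FRET after 1 h equilibration at 4 °C, excitation 340 nm, emission 615 and 665 nm. Run in triplicate.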

Series [3] has as its target T3, LXRβ ligand-binding domain (LBD) (Homo sapiens, UniProt P55055, DUP175-175).
T3 construct: LXRβ (amino acids 156-461); expressed in transfected cells; host or cells: HEK293
T3 sequence (P55055 with tags, fused parts or gaps DUP175-175): T2 sequence (P55055 with tags, fused parts or gaps DUP175-175)
The series is described as follows: LXR Gal4 reporter transient transfection assay (M2H), Gal4β LBD. The series is classed as cell-based. The note with it: HEK293 cells; read-out: M2H Gal4β LBD activity range (EC50). Here is the method:
as §1, §2, §3

Series [4] is described as follows: Pharmacokinetics in mice, blood and liver exposure via LC-MS. It counts as in vivo. Here is the method: The pharmacokinetics of different sulfonamides was assessed in mice after single dosing and oral and intraperitoneal administrations. Blood and liver exposure was measured via LC-MS.
The study design was as follows:
Animals: C57BL/6J (Janvier) males
Diet: standard rodent chow
Vehicle for i.p. injection: 0.5% HPMC (w:v) in water, injection volume: <5 mL/kg
Animal handling: animals were withdrawn from food at least 12 h before administration
Design: single dose oral and bid ip administration, n=3 animals per group
Sacrifice: at t=4 h after administration
Bioanalytics: LC-MS of liver and blood samples

The mark [5] stands for this setting: po, Dose (mg) 20, C57BL/6J mice, 4 h after administration.

Consider `CC(=O)NS(=O)(=O)c1cccc(-c2ccc(CN(Cc3ccc(C(F)(F)F)o3)S(=O)(=O)c3c(C)cc(C)cc3C)cc2)c1` [Example 3/1], for which the figures for the EC50 in series [1], in series [2] and in series [3] were 100 to 1000 nM, greater than 10000 nM and less than 100 nM, respectively. Besides, the “behavior in FRET assay” value in series [2] is “ia”.

Regarding `COC(=O)CS(=O)(=O)c1cccc(-c2ccc(CN(Cc3ccc(C(F)(F)F)o3)S(=O)(=O)c3c(C)cc(C)cc3C)cc2)c1` [Example 4, Methyl 2-((4′-(((2,4,6-trimethyl-N-((5-(trifluoromethyl)furan-2-yl)methyl)phenyl)sulfon-amido)methyl)-[1,1′-biphenyl]-3-yl)sulfonyl)acetate], the results for the EC50 in series [1], in series [2] and in series [3] were 1000 to 10000 nM, less than 100 nM and 100 to 1000 nM, respectively. The “behavior in FRET assay” value in series [2] is given as “ia”.

`Cc1cc(C)c(S(=O)(=O)N(Cc2ccc(N3CCCN(CC(=O)O)C3=O)cc2)Cc2ccc(C(F)(F)F)o2)c(C)c1` [Example 16, 2-(2-Oxo-3-(4-(((2,4,6-trimethyl-N-((5-(trifluoromethyl)furan-2-yl)methyl)phenyl)sulfon-amido)methyl)phenyl)tetrahydropyrimidin-1(2H)-yl)acetic acid]: the “M2H Gal4α LBD activity range (EC50)” value in series [1] is “inactive”. In series [2], the EC50 was greater than 10000 nM and the “behavior in FRET assay” value was “ia”. Further, the EC50 in series [3] lay in the range of 1000 to 10000 nM.

Consider `Cc1cc(C)c(S(=O)(=O)N(Cc2ccc(N3CCCC(CC(=O)O)C3=O)cc2)Cc2ccc(C(F)(F)F)o2)c(C)c1` (stereo not drawn) [Example 16/1], for which the half-maximal effective concentration (EC50) in series [1] was 1000 to 10000 nM; in series [2] it was greater than 10000 nM; in series [3], 100 to 1000 nM. The “behavior in FRET assay” value in series [2] was “ia”.

As for `Cc1cc(C)c(S(=O)(=O)N(Cc2ccc(C(F)(F)F)o2)CC2CC=C(c3cccc(C(C)(C)C(=O)O)c3)CC2)c(C)c1` (stereo not drawn) [Example 19, 2-Methyl-2-(4′-(((2,4,6-trimethyl-N-((5-(trifluoromethyl)furan-2-yl)methyl)phenyl)sulfon-amido)methyl)-2′,3′,4′,5′-tetrahydro-[1,1′-biphenyl]-3-yl)propanoic acid], the concentration giving a half-maximal response (EC50) in series [1] is 100 to 1000 nM; in series [2], 100 to 1000 nM; in series [3], less than 100 nM. Also, the “behavior in FRET assay” value in series [2] is “ia”.

Turning to `Cc1cc(C)c(S(=O)(=O)N(Cc2ccc(C(F)(F)F)o2)CC2CCC(c3cccc(C(C)(C)C(=O)O)c3)CC2)c(C)c1` (stereo not drawn) [Example 19/1], the “M2H Gal4α LBD activity range (EC50)” value in series [1] was “inactive”. Besides, in series [2], the 50% effective concentration (EC50) lay in the range of 1000 to 10000 nM and the “behavior in FRET assay” value was “ia”. Also, the concentration giving a half-maximal response (EC50) in series [3] was 100 to 1000 nM.

`COc1cc(-c2ccc3c(c2)C(C)(C)C(=O)OC3)ccc1CN(Cc1ccc(C(F)(F)F)o1)S(=O)(=O)c1c(C)ccc2ccccc12` [Example 22, N-(4-(4,4-Dimethyl-3-oxoisochroman-6-yl)-2-methoxybenzyl)-2-methyl-N-((5-(trifluoro-methyl)furan-2-yl)methyl)naphthalene-1-sulfonamide]: the concentration giving a half-maximal response (EC50) is 1000 to 10000 nM in series [1], 1000 to 10000 nM in series [2] and less than 100 nM in series [3]. In series [2], the “behavior in FRET assay” value was “ia”.

Consider `COc1cc(-c2ccc(CO)c(C(C)(C)C(=O)[O-])c2)ccc1CN(Cc1ccc(C(F)(F)F)o1)S(=O)(=O)c1c(C)ccc2ccccc12.[Na+]` [Example 23, Sodium 2-(4-(hydroxymethyl)-3′-methoxy-4′-(((2-methyl-N-((5-(trifluoromethyl)furan-2-yl)methyl)naphthalene)-1-sulfonamido)methyl)-[1,1′-biphenyl]-3-yl)-2-methylpropanoate], for which the EC50 is less than 100 nM in series [1], 100 to 1000 nM in series [2] and less than 100 nM in series [3]. Also, in series [2], the “behavior in FRET assay” value is recorded as “ia”.

Regarding `Cc1cc(C)c(S(=O)(=O)N(Cc2ccc(-c3cccc(CCC(=O)O)c3)cc2)Cc2ccc(C(F)(F)F)o2)c(C)c1` [Example 25, 3-(4′-(((2,4,6-Trimethyl-N-((5-(trifluoromethyl)furan-2-yl)methyl)phenyl)sulfonamido)methyl)-[1,1′-biphenyl]-3-yl)propanoic acid], the concentration giving a half-maximal response (EC50) in series [1] was 100 to 1000 nM; in series [2], 100 to 1000 nM; in series [3], less than 100 nM. In series [2], the “behavior in FRET assay” value is reported as “ia”.

As to `Cc1cc(C)c(S(=O)(=O)N(Cc2ccc(-c3cccc(S(=O)(=O)NCC(=O)O)c3)cc2)Cc2ccc(C(F)(F)F)o2)c(C)c1` [Example 25/1], the 50% effective concentration (EC50) in series [1], in series [2] and in series [3] was 1000 to 10000 nM throughout. For the same molecule, the “behavior in FRET assay” value in series [2] is listed as “ia”.

In the case of `Cc1cc(C)c(S(=O)(=O)N(Cc2ccc(-c3cccc(C(=O)O)c3)cc2)Cc2ccc(C(F)(F)F)o2)c(C)c1` [Example C6, 4′-(((2,4,6-Trimethyl-N-((5-(trifluoromethyl)furan-2-yl)methyl)phenyl)sulfonamido)methyl)-[1,1′-biphenyl]-3-carboxylic acid], the EC50 in series [1] is 1000 to 10000 nM; in series [2], greater than 10000 nM; in series [3] it was 100 to 1000 nM. The “behavior in FRET assay” value in series [2] was “ia”.

For the molecule `Cc1cc(C)c(S(=O)(=O)N(Cc2ccc(-c3cccc(Cc4nn[nH]n4)c3)cc2)Cc2ccc(C(F)(F)F)o2)c(C)c1` [Example C7, N-((3′-((2H-Tetrazol-5-yl)methyl)-[1,1′-biphenyl]-4-yl)methyl)-2,4,6-trimethyl-N-((5-(trifluoro-methyl)furan-2-yl)methyl)benzenesulfonamide], the EC50 is 100 to 1000 nM in series [1], 1000 to 10000 nM in series [2] and 100 to 1000 nM in series [3]. For the same molecule, in series [2], the “behavior in FRET assay” value is listed as “ia”.

As for `CCOC(=O)c1ccc(CN(Cc2ccc(-c3cccc(S(C)(=O)=O)c3)cc2)S(=O)(=O)c2c(C)cc(C)cc2C)o1` [SR9238, reference compound], the “oral bioavailability (in words)” value in series [4] (mice, oral administration) is given as “not orally bioavailable”. Further, in series [4] (setting [5]), the “blood exposure, 4 h” value was “po: below LLOQ” and the “liver exposure, 4 h” value is on record as “po: below LLOQ”.
